Assay results as given in publication PMC4060151 (Chemistry & biology, 2014).

Legend:
[1] = tested on: stationary M. tuberculosis mc^26020; assay: Time-dependent killing, stationary cells; type: cell-based; details: 10 ×MIC; average of three biological replicates (Fig. 3B)
cell wall biosynthesis = details: ref Iwatsuki et al., 2006; cited from earlier work
ClpC1 = details: cited from earlier work

CO[C@H]1/C=C/O[C@@]2(C)Oc3c(C)c(O)c4c(O)c(c(/C=N/N5CCN(C)CC5)c(O)c4c3C2=O)NC(=O)/C(C)=C\C=C\[C@H](C)[C@H](O)[C@@H](C)[C@@H](O)[C@@H](C)[C@H](OC(C)=O)[C@@H]1C [rifampicin]
killing of stationary phase cells [1]: characteristic biphasic killing (Fig. 3B) and a significant number of persister cells survive exposure

Lariatin A
mechanism of action (cell wall biosynthesis): inhibits cell wall biosynthesis

cyclomarin A
binding to ClpC1 (ClpC1): binds to ClpC1 | effect on proteolysis (ClpC1): proposed to cause excessive proteolysis
